Test results as given in patent publication US11649228B2, “Zinc indicators for cellular imaging” (The Board of Regents of the University of Texas System, priority 2018, dated 2023).
Read-outs that look alike come from different tables or passages of the source. One block for each molecule: values may come before it.

Columns and labels:
[1] = Table 2, previously reported sensors, cited from earlier work; for Kd: read-out: Kd(Zn^2+)
[2] = Metal ion selectivity of fluorescence response; assay type: physicochemical; conditions: 1 μM sensor, 10 μM TPEN; against Na^+, K^+, Ca^2+, Mg^2+, Fe^2+, Ni^2+, Co^2+, Cu^2+, Mn^2+
Method: To study the metal selectivity, the fluorescence of ZIGIR-1 (1 μM) or ZIGIR-2 (1 μM) was measured in the presence of 10 μM TPEN and an excess of metal ion including 1 mM KCl, 1 mM NaCl, 1 mM CaSO4, 1 mM MgSO4, 15 μM MnSO4, 15 μM FeSO4, 15 μM NiSO4, 15 μM CoCl2, 15 μM CuSO4, 15 μM CdSO4 or 15 μM ZnSO4. The emission intensity was normalized to that of 15 μM ZnSO4 (100%).

[3] = Zn^2+ titration of ZIGIRs by fluorescence emission (Hill plot); assay type: binding
Method: (§1) UV-Vis spectra were recorded in a 1-cm path quartz cell on a Shimadzu 2401 PC spectrometer. Fluorescence excitation and emission spectra were recorded on a Fluorolog 3 spectrometer (Jobin-Yvon Horiba, Edison, N.J.). Zinc titration was performed by adding ZIGIRs (0.5 μM final concentration) to buffered Zn^2+ solutions containing 100 mM HEPES (pH 7.4). Nitrilotriacetic acid (NTA, 10 mM) and varying concentrations of ZnSO4 (0-9 mM) were mixed to reach free Zn^2+ concentrations between 0.1 nM and 40 nM (Li et al., 2011). Zn^2+ concentrations above 40 nM were controlled by iminodiacetate (IDA, 10 mM) and varying amounts of ZnSO4 (0-9.7 mM) in 100 mM HEPES (pH 7.4; Sasaki et al., 2011). To determine Zn^2+ binding dissociation constants (Kd(Zn^2+)), the Zn^2+ titration data were fitted to the least square exponential equation (Prism 7). Fluorescence quantum yields of ZIGIRs at pH 7.5 were determined using rhodamine 6G as the reference (Φfl=0.94 in MeOH; Magde et al., 2002). An example in shown FIGS. 11A0B. To examine the pH sensitivity of ZIGIRs, the fluorescence emission spectra was recorded from pH 3-9.4 in either nominally Zn^2+-free solutions containing 5 mM iminodiacetate or in 25 μM ZnSO4 solutions. The pH was controlled with 10 mM pH buffers including chloroacetic acid (pH 3.1), acetate (pH 4.1 and 5.0), 2-morpholinoethanesulfonic acid (MES, pH 6.14), HEPES (pH 7.5) and N-cyclohexyl-2-aminoethanesulfonic acid (CHES, pH 9.4).

[4] = pH sensitivity of ZIGIR fluorescence; assay type: physicochemical; conditions: same Zn^2+ level
Method: as §1, with “The pH was controlled with 10 mM pH buffers including chloroacetic acid (pH 3.1), acetate (pH 4.1 and 5.0), 2-morpholinoethanesulfonic acid (MES, pH 6.14), HEPES (pH 7.5) and N-cyclohexyl-2-aminoethanesulfonic acid (CHES, pH 9.4).” left out

[5] = Photochemical characterization of ZIGIRs in vitro (absorption, emission, quantum yield); assay type: physicochemical; conditions: for ε (extinction coefficient): in M-1·cm-1 (unit assumed); for ϕfl × ε (fluorescence brightness): in M^-1 cm^-1 (unit assumed); for fluorescence quantum yield: Zn^2+-bound state
Method: as §1

Compound: COc1ccc(N(CC(=O)O)CC(=O)O)c(OCCOc2cc(-c3c4cc(F)c(=O)cc-4oc4cc(O)c(F)cc34)ccc2NCC(=O)O)c1 [FluoZin-3]
- Zn^2+ response (fold change) [1]: >100×
- Kd [1]: 15 nM

Compound: Cc1cc2c(c(CN(Cc3ccccn3)Cc3cnccn3)c1)OC1(CC2)C(C)c2ccccc2N1C (centres unmarked) [SpiroZin2]
- Zn^2+ response (fold change) [1]: 8×
- Kd [1]: 3.6 nM

- fluorescence enhancement upon Zn^2+ binding [3]: 50 fold
- Kd ([3]; 100 mM HEPES pH 7.4): 290 nM
- fluorescence signal at pH 7.5 versus pH 5.0 [4]: essentially the same fluorescence signal
- absorption maximum [5]: ~520 nm
- bathochromic shift in absorption maximum from Zn^2+-free to Zn^2+-bound state [5]: 4 nm
- λabd^max ([5]; Zn^2+ bound): 521 nm
- λem^max ([5]; Zn^2+ bound): 543 nm
- ϕfl (fluorescence quantum yield) ([5]; Zn^2+ bound): 0.30
- ε (extinction coefficient) ([5]; Zn^2+ bound): 112,000
- ϕfl × ε (fluorescence brightness) ([5]; Zn^2+ bound): 33,600
- λabd^max ([5]; Zn^2+ free): 517 nm
- λem^max ([5]; Zn^2+ free): 547 nm
- ϕfl (fluorescence quantum yield) ([5]; Zn^2+ free): 0.008
- ε (extinction coefficient) ([5]; Zn^2+ free): 85,200
- ϕfl × ε (fluorescence brightness) ([5]; Zn^2+ free): 682
- fluorescence quantum yield [5]: 30%
Compound: CN=c1ccc2c(-c3ccc(NCCN(CCc4ccccn4)Cc4ccccn4)cc3C(=O)O)c3ccc(NC)cc3oc-2c1 [ZIGIR-1]
- selectivity of fluorescence response for Zn^2+ [2]: selective for Zn^2+
- FC (fold change in fluorescence brightness ϕfl×ε from Zn^2+-free to Zn^2+-bound state) [3]: 50

- absorption maximum [5]: around 555 nm
- emission maximum [5]: ~580 nm
- fluorescence quantum yield [5]: 18%
Compound: CCN(CC)c1ccc2c(-c3ccc(NCCN(CCc4ccccn4)Cc4ccccn4)cc3C(=O)[O-])c3ccc(=[N+](CC)CC)cc-3oc2c1 [ZIGIR-3]

Compound: COc1cc(O)c(-c2nc3c(CNCc4ccccn4)cccc3o2)cc1OC [ZINbo-5]
- Kd [1]: 2.2 nM
